Source: patent US20170320939A1, “COLL2-1 PEPTIDE AND ITS NITRATED FORM AS THERAPEUTIC TARGETS FOR OSTEOARTHRITIS TREATMENT” (Université de Liège, priority 2014, published 2017)
Square brackets hold non-standard residues; d marks the D form. Ends that are not written are not given here. Tyr(3-NO2) = N[C@@H](Cc1ccc(O)c([N+](=O)[O-])c1)C(=O)O

How the values were obtained:
TLR-4 = target: T1, TLR-4 (Homo sapiens, UniProt O00206); assay: Inhibition of TLR-4 receptor: IL-8 expression by osteoarthritic synoviocytes; format: cell-based; settings: 1 hour pre-treatment with CLI-095 (500 nM, 1 and 2.5 μM), then 24 hours Coll2-1 at 4.5 nmol
T1 construct: endogenous in cells; host or cells: osteoarthritic synoviocytes (synovial fibroblast cells)
T1 sequence (O00206 24-839): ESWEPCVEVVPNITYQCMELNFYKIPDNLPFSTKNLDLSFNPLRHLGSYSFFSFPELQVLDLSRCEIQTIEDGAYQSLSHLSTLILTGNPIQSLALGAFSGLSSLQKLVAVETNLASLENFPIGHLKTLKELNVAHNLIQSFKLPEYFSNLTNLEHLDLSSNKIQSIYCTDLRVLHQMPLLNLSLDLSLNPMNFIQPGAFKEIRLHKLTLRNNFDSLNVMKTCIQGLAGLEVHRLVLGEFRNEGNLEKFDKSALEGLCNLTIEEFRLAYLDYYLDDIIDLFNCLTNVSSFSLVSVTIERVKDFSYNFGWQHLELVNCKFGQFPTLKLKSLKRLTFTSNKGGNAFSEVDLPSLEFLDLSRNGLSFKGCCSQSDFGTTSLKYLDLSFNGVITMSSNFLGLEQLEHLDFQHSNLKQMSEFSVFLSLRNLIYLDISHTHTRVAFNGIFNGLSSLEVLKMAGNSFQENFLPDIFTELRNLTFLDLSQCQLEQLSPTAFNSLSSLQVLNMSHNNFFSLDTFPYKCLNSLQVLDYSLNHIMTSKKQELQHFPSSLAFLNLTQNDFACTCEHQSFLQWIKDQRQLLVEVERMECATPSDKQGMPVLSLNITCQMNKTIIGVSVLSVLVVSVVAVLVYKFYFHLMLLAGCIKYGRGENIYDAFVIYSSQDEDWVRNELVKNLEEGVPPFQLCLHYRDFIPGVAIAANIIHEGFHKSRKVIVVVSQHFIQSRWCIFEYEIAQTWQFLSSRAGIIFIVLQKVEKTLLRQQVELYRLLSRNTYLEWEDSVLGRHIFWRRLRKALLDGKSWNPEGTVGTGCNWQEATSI
Source text: (§1) 1.4 RNA extraction and Real Time Reverse Transcriptase-Polymerase Chain Reaction (RT PCR). Total RNA were extracted using the RNeasy Mini Kit (Qiagen, Netherlands) and were reverse transcribed with SuperScript III Reverse Transcriptase (Invitrogen, Belgium) according to the manufacturer's instructions. The cDNAs were quantified by real-time quantitative PCR using the Rotor Gene instrument (Qiagen, Venlo, Netherlands) and the SYBR Premix Ex Taq kit (Takara, Verviers, Belgium). The level of gene expression was determined by interpolation with a standard curve. To standardize mRNA levels, HPRT, a house keeping gene, was amplified as an internal control. The oligonucleotide primers sequences were as follow: HPRT forward, 5′-[…]-3′ (SEQ ID NO: 2); HPRT reverse, 5′-TGCCTGACCAAGGAAAGC-3′ (SEQ ID NO: 3); TSP-1 forward, 5′-CAGACCGCATTGGAGATAC-3′ (SEQ ID NO: 4); TSP-1 reverse, 5′-[…]-3′ (SEQ ID NO: 5); VEGF forward, 5′-TGCCTTGCTGCTCTAC-3′ (SEQ ID NO: 6); VEGF reverse, 5′-CACACAGGATGGCTTGAA-3′ (SEQ ID NO: 7); IL-6 forward, 5′-AAACAAATTCGGTACATCCTCG-3′ (SEQ ID NO: 8); IL-6 reverse, 5′-CCA GGC AAG TCT CCT CAT-3′ (SEQ ID NO: 9); IL-8 forward, 5′-GGAACCATCTCACTGTGTGTAA-3′ (SEQ ID NO: 10); IL-8 reverse, 5′-TGGAAAGGTTTGGAGTATGTCT-3′ (SEQ ID NO: 11).
Inhibition of TLR-4 receptor. […]

NF-κB = NF-κB activation, Western blotting of phospho-p65 and phospho-IκBα; format: cell-based; settings: oxidative stress inhibitors: apocynin 0.2 mM and diphenyleneiodonium 6.35 10^−2 mM
Method: Western blotting. Cells were collected at 4° C. and lysed on ice in 50 μl of buffer (25 mM Hepes, 150 mM NaCl, 0.5% Triton X-100, 10% glycerol, and 1 mM dithiothreitol) containing protease and phosphatase inhibitors. After incubation at 4° C. for 30 minutes, lysates were then centrifugated at 14,000 g for 30 minutes at 4° C. to remove insoluble debris. Protein concentrations were determined using BCA assay. Total protein extracts (10 μg) were fractioned by electrophoresis on a polyacrylamide gel (10%) and transferred onto a PVDF membrane. Membrane were blocked for 1 h in TBS-Tween containing 2% bovine serum albumin (phosphor-NF-κB p65 and phospho-IκBα). Membranes were then incubated overnight at 4° C. with primary antibodies. Anti-rabbit phospho-NF-κB p65 (1:1000 dilution), anti-rabbit phospho-IκBα (1:1000 dilution) were used. Horse-radish peroxidase (HRP)-linked anti-rabbit IgG antibody (1:2000 dilution) was used as secondary antibody.

[1] = system: OA synovial fibroblast cells; assay: Intracellular H2O2 production in OA synovial fibroblast cells; format: cell-based, human; settings: 24 hours
Method: (§2) 1.1 Patients. Synovial tissue samples were obtained from 10 patients (8 women, 2 man; mean age 70 +/−6 years) with osteoarthritis (OA) of the knee at the time of total knee joint replacement surgery. All the subjects provided their informed consent.
(§3) 1.2 Isolation and culture of synovial cells. Synovium biopsies were digested is with collagenase from Clostridium histolyticum, Type IA (1 mg/ml) (Sigma-Aldrich, Saint-Louis, USA) and 0.25% trypsin (Sigma Aldrich, Saint Louis, USA) with 0.68 mM EDTA in Tris buffer 0.1M, pH 7.4 in complete medium (CM) (DMEM (Dulbecco's Modified Eagle's Medium) Low Glucose supplemented with 10 mM HEPES, 100 U/ml penicillin, 100 μg/ml streptomycin, 2 mM glutamine and 10% fetal calf serum (Lonza, Verviers, Belgium)) for 1 hour at 37° C. The cells suspensions were passed through a 70-μm filter to remove any undigested tissue. The filtered cells suspensions were then collected by centrifugation at 800 g and were cultured in culture flasks. After 24 hours, medium was changed to eliminate non adherent cells. Synovial fibroblasts cells (SFC) were used after three passages.
(§4) 1.3 Treatment of synovial fibroblast cells. Cells were seeded into a six-well plate at the density of 2×10^5 cells/well in 2 ml of CM. When the cells reached confluence, the CM was replaced with 1% serum medium for 24 h to keep the cells quiescent. Cells were incubated for 24 hours with or without peptides Coll2-1 (^108HRGYPGLDG^116; 0.45 and 4.5 nmol) or Coll2-1NO2 (^108HRGYPGLDG-NO2^116; 4 and 40 pmol) at a range of concentrations found in the blood of osteoarthritic patients.
1.5 Intracellular H2O2 and O2^∘^− productions. Levels of intracellular superoxide anion (O2^∘^−) and hydrogen peroxide (H2O2) were assessed spectrofluorimetrically by oxidation of specific probes: dihydroethidium (Molecular Probes, Leiden, The Netherlands) and H2DCFH-DA (Molecular Probes, Leiden, The Netherlands) respectively. Synovial cells seeded on 96-well plates (8×10^3 cells per well) were washed once with phosphate-buffered saline and then incubated with 50 μL of phosphate-buffered saline containing either 250 μM dihydroethidium or 200 μM H2DCFH-DA. The fluorescence intensity was measured every hour for 6 hours. The levels of O2^∘^− or H2O2 are expressed in arbitrary unit/living cell. The numbers of adherent cells were measured by crystal violet assay.

[2] = system: OA synovial fibroblast cells; assay: Intracellular GSH assay in OA synovial fibroblast cells; format: cell-based, human; settings: Coll2-1NO2 at 4 and 40 pmol, 24 hours
Method: as §2
as §3, with “passages. […]” for “passages.”
1.6 GSH assay. Levels of intracellular GSH were assessed by monoclorobimane staining. […] The fluorescence intensities were measured at […] using excitation and emission wavelengths of 380 and 485 nm, respectively. The intracellular GSH level was expressed as arbitrary units of fluorescence intensity.

TSP1 = TSP1 mRNA expression by Real Time PCR in OA synovial fibroblast cells; format: cell-based, human; settings: 24 hours
Method: as §4, §1

IL-8 = IL-8 mRNA expression by Real Time PCR in OA synovial fibroblast cells; format: cell-based, human; settings: increasing concentrations: Coll2-1 (0.45 and 4.5 nmol) or Coll2-1NO2 (4 and 40 pmol), 24 hours
Method: as §4, §1

IL-6 = IL-6 mRNA expression by Real Time PCR in OA synovial fibroblast cells; format: cell-based, human; settings: increasing concentrations of peptide, 24 hours
Method: as §4
(§5) 1.4 RNA extraction and Real Time Reverse Transcriptase-Polymerase Chain Reaction (RT PCR). Total RNA were extracted using the RNeasy Mini Kit (Qiagen, Netherlands) and were reverse transcribed with SuperScript III Reverse Transcriptase (Invitrogen, Belgium) according to the manufacturer's instructions. The cDNAs were quantified by real-time quantitative PCR using the Rotor Gene instrument (Qiagen, Venlo, Netherlands) and the SYBR Premix Ex Taq kit (Takara, Verviers, Belgium). The level of gene expression was determined by interpolation with a standard curve. To standardize mRNA levels, HPRT, a house keeping gene, was amplified as an internal control. […]

[3] = system: OA synovial fibroblast cells; assay: NO production in OA synovial fibroblast cells; format: cell-based, human; settings: Coll2-1 (0.45 and 4.5 nmol) or Coll2-1NO2 (4 and 40 pmol), 24 hours
Method: as §2
as §3, with “passages. […]” for “passages.”
1.7 NO production. Nitric oxide production was evaluated using a DAF2-DA fluorescent probe (Molecular Probes, Leiden, The Netherlands). […] The fluorescence intensity was measured every hour for 6 hours. […] The numbers of adherent cells were measured by cristal violet assay.

VEGF = VEGF mRNA expression by Real Time PCR in OA synovial fibroblast cells; format: cell-based, human; settings: increasing concentrations: Coll2-1 (0.45 and 4.5 nmol) or Coll2-1NO2 (4 and 40 pmol), 24 hours
Method: as §4, §5

For `CCOC(=O)C1=CCCC[C@H]1S(=O)(=O)Nc1ccc(F)cc1Cl` [CLI-095], the “IL-8 expression by osteoarthritic synoviocytes in the presence of Coll2-1” value (TLR-4) was “decrease”.

For `c1ccc2c(c1)[I+]c1ccccc1-2` [diphenyleneiodonium], the “Coll2-1 induced IκBα degradation” value (NF-κB) was “decreased” and the “Coll2-1 induced phosphorylation and translocation of p65” value (NF-κB) was “inhibited”.

In the case of `COc1cc(C(C)=O)ccc1O` [apocynin], the “Coll2-1 induced IκBα degradation” value (NF-κB) is reported as “decreased” and the “Coll2-1 induced phosphorylation and translocation of p65” value (NF-κB) is reported as “inhibited”.

“HRGY(NO2)PGLDG (HRG[Tyr(3-NO2)]PGLDG) [Coll2-1NO2, nitrated form of the Coll2-1 peptide]” was tested, and the “intracellular production of H2O2” value ([1]; Coll2-1NO2 at 4 pmol) was “significantly increased”, the “intracellular production of H2O2” value ([1]; Coll2-1NO2 at 40 pmol) was “significantly increased” and the “intracellular level of GSH” value [2] was “significant decrease”. For the same molecule, the “decrease of TSP1 expression, significance” value (TSP1; Coll2-1NO2 at 40 pmol) was “significant”, the TSP1 expression (TSP1; increasing concentrations: Coll2-1 (0.45 and 4.5 nmol) or Coll2-1NO2 (4 and 40 pmol)) was “decreased” and the IL-8 expression (IL-8) was “increased”. For the same molecule, the IL-6 expression (IL-6) was “increased”, the “production of NO (nitric oxide)” value [3] was “decreased significantly” and the VEGF expression (VEGF) was “tended to increase”.
